Tested on: Cladosporium cucumerinum
Test: Antifungal activity against phytopathogenic Cladosporium cucumerinum by bioautographic TLC assay
Type: functional

Row | MIC [µg] | Structure (SMILES)
1 | 1 | Clc1ccc(COC(Cn2ccnc2)c2ccc(Cl)cc2Cl)c(Cl)c1 (configuration not stated) [MICONAZOLE]
2 | 1 | O=C1C=CC[C@@H](C[C@H](O)CCCCc2ccccc2)O1

Source: ChEMBL document CHEMBL1156091, “Stereoselective total synthesis of a potent natural antifungal compound (6S)-5,6,dihydro-6-[(2R)-2-hydroxy-6-phenyl hexyl]-2H-pyran-2-one” (2009)
